One may read the AUC as the area under the concentration-time curve, a measure of exposure. A high value points to more exposure. As a reminder, the Cmax is the maximum level reached in the sampled fluid or tissue. Usually Tmax stands for the time at which the peak concentration occurs. Usually half-life stands for the time needed for the level to fall by half in the phase considered. A higher half-life goes with slow decline. Broadly, the IC50 is the concentration at which inhibition is half-maximal. A higher IC50 goes with a need for much substance.

The source of these data is patent US12187713B2, “Immunomodulators, compositions and methods thereof” (Betta Pharmaceuticals Co., Ltd, priority 2019, dated 2025).

The nature of series [1]: Pharmacokinetic Assay, single oral dose 100 mg/kg (Table 11). In kind it is in vivo. Conditions: mouse, C57 female mice, oral (intragastric), plasma. As to the method: Adult C57 female mice were received to single-dose of the test compounds with […], 10% Kolliphor^@HS 15 and 80% saline as excipients, the mice (n=9) were giving oral administration (intragastric administration) with the compounds at a dose of 100 mg/kg. Time of blood collection: 15 min, 30 min, 1 h, 2 h, 4 h, 7 h, 24 h. Approximately 0.1 mL of whole blood was collected from retro-orbital venous plexus of 3 mice at each time point, and placed into tubes that contained K2-EDTA as an anticoagulant. The whole blood was centrifuged at 4° C. and 4000 rpm for 10 min. The plasma was transferred into centrifuge tubes, and stored at −20° C. until being analyzed. Concentrations of test compounds in the plasma samples were analyzed with liquid chromatography-tandem mass spectrometry (LC-MS/MS). Plasma concentration-time data of individual animals was analyzed using Microsoft Excel 2010. Non-compartmental model was introduced in concentration analysis. The pharmacokinetic parameters of the test compounds were calculated using WinNonlin (version 4.1; Pharsight) software.

The target of series [2] is PD-1/PD-L1 (Homo sapiens (Human), UniProt Q9NZQ7). The series can be described thus: PD-1/PD-L1 Binding Assay (Alphascreen). The method, boiled down: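 PD-1/PD-L1 binding detected by anti-6×His acceptor and streptavidin donor beads after 120 min in the dark at 25 °C. Beforehand, the two proteins were incubated 15 min at 25 °C with inhibitor at 0.015–300 nM (1% DMSO). IC50 comes from a log concentration–response curve.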
A general note: Alpha assays give light when donor and acceptor beads are brought close together.

Sequence of PD-1/PD-L1 (Q9NZQ7 19-238): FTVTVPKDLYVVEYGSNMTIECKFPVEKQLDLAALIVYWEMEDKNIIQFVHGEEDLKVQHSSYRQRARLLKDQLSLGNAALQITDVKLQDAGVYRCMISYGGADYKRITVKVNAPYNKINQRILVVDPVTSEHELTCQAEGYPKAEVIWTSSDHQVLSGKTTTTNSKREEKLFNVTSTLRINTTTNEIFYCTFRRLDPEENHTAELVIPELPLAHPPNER

With `Cc1c(-c2nc3cc(CN4CCC[C@H]4C(=O)O)c(OC(F)F)cc3o2)cccc1-c1cccc(-c2nc3cc(CN4CCCC4)cc(F)c3o2)c1C` [Example 95, ((6-(difluoromethoxy)-2-(3′-(7-fluoro-5-(pyrrolidin-1-ylmethyl)benzo[d]oxazol-2-yl)-2,2′-dimethyl-[1,1′-biphenyl]-3-yl)benzo[d]oxazol-5-yl)methyl)-L-proline], in series [1], the exposure (AUC) stood at 22900 ng·h/mL, the Cmax came to 2030 ng/mL, the Tmax was 4 h and the half-life is 6.48 h. Also, the IC50 in series [2] (numeric values) turned out to be 1.4 nM.
Taken in the same sequence, the figures for `Cc1c(-c2nc3cc(CN4CC[C@H]4CO)c(OC(F)F)cc3o2)cccc1-c1cccc(-c2nc3cc(CN4CCC[C@H]4C(=O)O)c(OC(F)F)cc3o2)c1C` [Example 31, ((6-(difluoromethoxy)-2-(3′-(6-(difluoromethoxy)-5-(((S)-2-(hydroxymethyl)azetidin-1-yl)methyl)benzo[d]oxazol-2-yl)-2,2′-dimethyl-[1,1′-biphenyl]-3-yl)benzo[d]oxazol-5-yl)methyl)-L-proline] were 6600 ng·h/mL, 1000 ng/mL, 1 h, 9.81 h and 0.5 nM.
On to `Cc1c(-c2nc3ccc(CN4CCCC4)cc3o2)cccc1-c1cccc(-c2nc3cc(CN4CCC[C@H]4C(=O)O)c(OC(F)F)cc3o2)c1C` [Example 108, ((6-(difluoromethoxy)-2-(2,2′-dimethyl-3′-(6-(pyrrolidin-1-ylmethyl)benzo[d]oxazol-2-yl)-[1,1′-biphenyl]-3-yl)benzo[d]oxazol-5-yl)methyl)-L-proline], for which, in series [1], the AUC was found to be 10100 ng·h/mL, the Cmax was 713 ng/mL, the time to peak (Tmax) came to 1 h and the half-life was 21.7 h. In series [2] (range symbols), this compound displayed an IC50 of 0.1 to 5 nM.
On to `Cc1c(-c2ccc(CN3CCCC3)c(OC(F)F)c2)cccc1-c1cccc(-c2nc3cc(CN4CCC[C@H]4C(=O)O)c(OC(F)F)cc3o2)c1C` [Example 244, ((6-(difluoromethoxy)-2-(3″-(difluoromethoxy)-2,2′-dimethyl-4″-(pyrrolidin-1-ylmethyl)-[1,1′:3′,1″-terphenyl]-3-yl)benzo[d]oxazol-5-yl)methyl)-L-proline], for which, in series [1], the AUC came to 78100 ng·h/mL, the highest level (Cmax) was 5740 ng/mL, the Tmax was 2 h and the half-life was 7.01 h. In series [2] (numeric values), this compound gave a 50% inhibitory concentration (IC50) of 2 nM.
Take `Cc1c(-c2nc3cc(CN4CCC[C@H]4C(=O)O)c(OC(F)F)cc3o2)cccc1-c1cccc(-c2nc3cc(CN4CCCC4(C)C)c(OC(F)F)cc3o2)c1C` [Example 62, ((6-(difluoromethoxy)-2-(3′-(6-(difluoromethoxy)-5-((2,2-dimethylpyrrolidin-1-yl)methyl)benzo[d]oxazol-2-yl)-2,2′-dimethyl-[1,1′-biphenyl]-3-yl)benzo[d]oxazol-5-yl)methyl)-L-proline]: in series [1], the area under the curve (AUC) came to 46500 ng·h/mL, the highest level (Cmax) was 4280 ng/mL, the Tmax was found to be 4 h and the half-life was 9.69 h. The compound further registered a 50% inhibitory concentration (IC50) in series [2] (numeric values) of 2.6 nM.
As for `Cc1c(-c2nc3c(o2)CCN(C)C3)cccc1-c1cccc(-c2nc3cc(CN4CCC[C@H]4C(=O)O)c(OC(F)F)cc3o2)c1C` [Example 314, ((6-(difluoromethoxy)-2-(2,2′-dimethyl-3′-(5-methyl-4,5,6,7-tetrahydrooxazolo[4,5-c]pyridin-2-yl)-[1,1′-biphenyl]-3-yl)benzo[d]oxazol-5-yl)methyl)-L-proline], in series [1], the AUC turned out to be 29000 ng·h/mL, the peak level (Cmax) was 6350 ng/mL, the Tmax worked out at 2 h and the half-life was 5.43 h. Moreover, the half-maximal inhibitory concentration (IC50) in series [2] (numeric values) came to 8 nM.
The corresponding values for `Cc1c(-c2nc3cc(CN(C)C)c(OC(F)F)cc3o2)cccc1-c1cccc(-c2nc3cc(CN4CCC[C@H]4C(=O)O)c(OC(F)F)cc3o2)c1C` [Example 16, ((6-(difluoromethoxy)-2-(3′-(6-(difluoromethoxy)-5-((dimethylamino)methyl)benzo [d]oxazol-2-yl)-2,2′-dimethyl-[1,1′-biphenyl]-3-yl)benzo[d]oxazol-5-yl)methyl)-L-proline] are 20900 ng·h/mL, 1470 ng/mL, 4 h, 4.8 h and 1.1 nM.
For the compound `Cc1c(-c2nc3cc(CNC[C@H]4CCCO4)c(OC(F)F)cc3o2)cccc1-c1cccc(-c2nc3cc(CN4CCC[C@H]4C(=O)O)c(OC(F)F)cc3o2)c1C` [Example 29, ((6-(difluoromethoxy)-2-(3′-(6-(difluoromethoxy)-5-(((((R)-tetrahydrofuran-2-yl)methyl)amino)methyl)benzo[d]oxazol-2-yl)-2,2′-dimethyl-[1,1′-biphenyl]-3-yl)benzo[d]oxazol-5-yl)methyl)-L-proline], in series [1], the AUC was 42700 ng·h/mL, the maximum concentration (Cmax) stood at 3720 ng/mL, the time to peak (Tmax) was 1 h and the half-life is 4.67 h. The compound further had a 50% inhibitory concentration (IC50) in series [2] (numeric values) of 1.2 nM.
As for `Cc1c(-c2nc3cc(CN4CCC[C@H]4CO)c(OC(F)F)cc3o2)cccc1-c1cccc(-c2nc3cc(CN4CCC[C@H]4C(=O)O)c(OC(F)F)cc3o2)c1C` [Example 12, ((6-(difluoromethoxy)-2-(3′-(6-(difluoromethoxy)-5-(((S)-2-(hydroxymethyl)pyrrolidin-1-yl)methyl)benzo[d]oxazol-2-yl)-2,2′-dimethyl-[1,1′-biphenyl]-3-yl)benzo[d]oxazol-5-yl)methyl)-L-proline], in series [1], the AUC amounted to 14500 ng·h/mL, the Cmax stood at 1380 ng/mL, the time to peak (Tmax) was determined as 2 h and the half-life is 7.97 h. For the same compound, in series [2] (numeric values), the IC50 is 1.1 nM.
`Cc1c(-c2nc3c(o2)CCNC3)cccc1-c1cccc(-c2nc3cc(CN4CCC[C@H]4C(=O)O)c(OC(F)F)cc3o2)c1C` [Example 190, ((6-(difluoromethoxy)-2-(2,2′-dimethyl-3′-(4,5,6,7-tetrahydrooxazolo[4,5-c]pyridin-2-yl)-[1,1′-biphenyl]-3-yl)benzo[d]oxazol-5-yl)methyl)-L-proline]: in series [1], the area under the curve (AUC) stood at 8570 ng·h/mL, the peak concentration (Cmax) is 1280 ng/mL, the Tmax worked out at 1 h and the half-life is 3.57 h. The IC50 in series [2] (numeric values) came to 0.2 nM.
Taken in the same sequence, the figures for `Cc1c(-c2nc3cc(CNC4COC4)c(OC(F)F)cc3o2)cccc1-c1cccc(-c2nc3cc(CN4CCC[C@H]4C(=O)O)c(OC(F)F)cc3o2)c1C` [Example 28, ((6-(difluoromethoxy)-2-(3′-(6-(difluoromethoxy)-5-((oxetan-3-ylamino)methyl)benzo [d]oxazol-2-yl)-2,2′-dimethyl-[1,1′-biphenyl]-3-yl)benzo[d]oxazol-5-yl)methyl)-L-proline] were 5800 ng·h/mL, 1280 ng/mL, 1 h, 2.79 h and 3.2 nM.
The corresponding values for `COC(=O)[C@@H]1CCCN1Cc1cc2nc(-c3cccc(-c4cccc(-c5nc6cc(CN7CCC[C@H]7C(=O)O)c(OC(F)F)cc6o5)c4C)c3C)oc2cc1OC(F)F` [Example 3, ((6-(difluoromethoxy)-2-(3′-(6-(difluoromethoxy)-5-(((S)-2-(methoxycarbonyl)pyrrolidin-1-yl)methyl)benzo[d]oxazol-2-yl)-2,2′-dimethyl-[1,1′-biphenyl]-3-yl)benzo[d]oxazol-5-yl)methyl)-L-proline] are 461 ng·h/mL, 374 ng/mL, 1 h, 0.39 h and 89 nM.
